Data published in patent publication US10865203B2, “Ligands selective to alpha 6 subunit-containing GABAA receptors and their methods of use” (UWM Research Foundation, Inc., priority 2015, dated 2020).
In brackets after ≈: the same amount, converted by molar mass.

Columns and labels:
[1] = system: mice, apomorphine-induced stereotypy climbing; experiment: Apomorphine-induced stereotypy behaviors; assay type: in vivo, mouse; settings: 3 mg/kg i.p., apomorphine 1 mg/kg s.c.
Description: The mouse was placed into a lidded cylindrical cage (diameter: 12 cm; height: 14 cm) made with 1 cm-separated metal grids for 1 hour's habituation. Then, the mouse received apomorphine (1 mg/kg, s.c.) Injection. The behaviors of the mouse were videotaped, and the stereotypy behaviors were scored every 5 min for 1 min, starting from 15 min before apomorphine injection until 60 min after injection.
The stereotypy behaviors induced by apomorphine were scored by reference to a previous report (Park et al. 2003) with modifications as the followings: 0: normal behaviors (sleeping, normal sniffing); 1: increased activity and sniffing (grooming, rearing, paw licking, jumping); 2: occasional clinging to the side wall of the cage with forepaws; 3: intermittent clinging to the top lid of the cage with all four paws; 4: uninterrupted climbing with all four paws to the top lid. The highest rating score during the 1 min-recording period was counted.

[2] = Pharmacokinetic study in rats, plasma and brain; settings: for total concentration in rat brain tissue: nanoemulsion or suspension; for half-life: male, Wistar, rat, ip, 10 mg/kg
Description: Five pharmacokinetic studies have been performed; four in male Wistar rats and one in male Swiss mice. […] In a separate in vitro experiment, the rapid equilibrium dialysis assay was used to determine free fraction of DK-I-56-1 in rat plasma and brain tissue.

[3] = Microsomal stability assay, mouse liver microsomes; assay type: in vitro ADME; settings: for stability in Mouse liver microsomes: Table 2
Outline: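 Test compound at 10 μM was preincubated 5 min at 37 °C in phosphate buffer pH 7.4 with NADPH regenerating system, then started with human or mouse liver microsomes at 0.5 mg/mL protein. Samples were taken at 0–60 min and quenched in cold acetonitrile with internal standard. Slope k came from ln peak-area ratio versus time, three repeats in duplicate.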

[4] = Solubility of compounds in DI water; assay type: physicochemical; settings: thermodynamic from solid; 2 mg in 2 mL DI water, sonicated at 60° C. for 2 hours, cooled to room temperature, filtered
Description: The solubility of the compounds was examined by sonicating 2 mg of each respective compound in 2 mL of DI water at 60° C. for 2 hours. Solutions were cooled to room temperature and then filtered using a syringe filter. The resultant solutions were injected into a mass spectrometer using a SIM method, calibrated to the respective retention times and mass units of each compound. Calibration curves using standard solutions (5 data points) of each compound dissolved in methanol were used to calculate the unknown aqueous concentrations of each compound.

HEPG2 cell line = experiment: Cytotoxicity study, CellTiter-Glo cell viability; assay type: cell-based, Human; settings: HEPG2, 48 hours incubation
Description: Reagents and Instrumentation: Human liver hepatocellular carcinoma (HEPG2) cell line was purchased (ATCC) and cultured in 75 cm2 flasks (CellStar). Cells were grown in DMEM/High Glucose (Hyclone, #SH3024301) media to which non-essential amino acids (Hyclone, #SH30238.01), 10 mM HEPES (Hyclone, #SH302237.01), 5×106 units of penicillin and streptomycin (Hyclone, #SV30010), and 10% of heat inactivated fetal bovine serum (Gibco, #10082147) were added. Cells were harvested using 0.05% Trypsin (Hyclone, #SH3023601), which disrupts the cell monolayer and proteolytically cleaves the bonds between the cells and flask. The cell viability assay was evaluated using CellTiter-Glo™ Luminescent Cell Viability Assay Kit (Promega, Madison, Wis.) which contains luciferase and all its substrate except ATP. The controls for the cytotoxicity assay used were (E)-10-(bromotriphenylphosphoranyl)decyl 4-(4-(tert-butyl)phenyl)-4-oxobut-2-enoate (400 μM in DMSO, positive control) and DMSO (negative control). Cell culture was performed in a Baker Company Class II Biological Safety Cabinet. All luminescence readings were performed on a Tecan Infinite M1000 plate reader. Small volume transfers were performed on the Tecan Freedom EVO liquid handling system with a 100 nL pin tool transfer (V&P Scientific). Serial dilutions were done in 96-well polypropylene plates (Corning, #3365) and assays were conducted in 384-well white optical bottom plates.
Luminescence-Based VDR-Mediated Transcription Assay Protocol: After 48 hours of incubation at 37 °C with 5% CO2, the cells were harvested with 4 mL of 0.05% Trypsin, added to 10 mL of the assay buffer, DMEM/High Modified buffer without phenol red, and spun down for 3 minutes at 1000 rpm. The media was removed and cells were resuspended in the DMEM assay media. To each well, 40 μL of cells were added to yield a final concentration of 15,000 cells per well. The plates were then spun down for 2 minutes at 1000 rpm. After 2 hours, plated cells were treated with 100 nL×4 of small molecules and controls which were added using the pin tool. After 48 hours of incubation at 37 °C with 5% CO2, 20 μL of Cell Titer-Glo™ Luminescence Assay Kit (cytotoxicity assay) were added and luminescence was read. Controls were measured within each plate to determine the z′ factor (Equation 1) and to enable data normalization. Three independent experiments were performed in quadruplicate and data was analyzed using nonlinear regression with variable slope (GraphPrism, Equation 2). The luminescence intensity of control (untreated) cells was taken as 100% viability, and the relative cell viability compared to control was calculated. Data are presented as the means±SEM of a series of three experiments.

[5] = 10 μM test compound, 0.5 mg/mL protein, 37° C.

Structure (SMILES) | stereotypy climbing behaviors induced by apomorphine [1] | total concentration in rat brain tissue ([2]; 10 mg/kg i.p.) | % left after 1 hr. (MLM) [3, 5] [%] | stability in Mouse liver microsomes [3] [%] | half-life at 10 μM ([3]; mouse, liver microsomes, pH 7.4, 10 μM test compound, 0.5 mg/mL protein, 37° C., read-out: Half-life (min) (MLM)) | solubility at 2 h [4] [µg/mL] | toxicity at 400 μM (HEPG2 cell line) | time of maximum concentration in rat brain tissue ([2]; 10 mg/kg i.p.) [h] | free concentrations in rat brain tissue ([2]; 10 mg/kg i.p., estimated from free fraction) [nM] | half-life ([2]; brain) [h] | Half-life (min) (MLM) [3, 5] | half-life ([2]; in vivo) [h] | higher stability compared to non-Deuterated (DK-II-13-1) ([3]; mouse liver microsomes) [%]
COc1ccc(-n2nc3c4ccc(OC)cc4[nH]cc-3c2=O)cc1 [Compound 6, 7-Methoxy-2-(4-methoxyphenyl)-2,5-dihydro-3H-pyrazolo[4,3-c]quinolin-3-one] | did not affect | high submicromolar concentrations | 80.35 ± 0.14 | 80 | 194 ± 11.4 | – | – | – | – | – | – | – | –
[2H]C([2H])([2H])Oc1ccc(-n2nc3c4ccc(OC)cc4[nH]cc-3c2=O)cc1 [DK-I-56-1, 7-Methoxy-2-(4-methoxy-d3-phenyl)-2,5-dihydro-3H-pyrazolo[4,3-c]quinolin-3-one] | – | micromolar concentrations | 92.8 ± 0.09 | – | – | 11.4 (≈ 35.1 µM) | non-toxic | 3 | ≥ 100 | ~4 | 628.8 ± 73 | – | –
[2H]C([2H])([2H])Oc1ccc2c3nn(-c4ccc(OC)nc4)c(=O)c-3c[nH]c2c1 [DK-I-86-1, 7-Methoxy-d3-2-(6-methoxypyridin-3-yl)-2,5-dihydro-3H-pyrazolo[4,3-c]quinolin-3-one] | – | high submicromolar concentrations | 91.3 ± 0.12 | – | – | 211 (≈ 649 µM) | non-toxic | – | – | – | 550.6 ± 78 | ~9 | ~20
COc1cccc(-n2nc3c4cc(Cl)ccc4[nH]cc-3c2=O)c1 [LAU 159, 8-Chloro-2-(3-methoxyphenyl)-2,5-dihydro-3H-pyrazolo[4,3-c]quinolin-3-one] | – | – | 59.83 ± 0.23 | ~60 | – | – | – | – | – | – | 89.07 ± 5.22 | – | –
COc1ccc(-n2nc3c4ccc(Br)cc4[nH]cc-3c2=O)cc1 [LAU 463, 7-Bromo-2-(4-methoxyphenyl)-2,5-dihydro-3H-pyrazolo[4,3-c]quinolin-3-one] | – | – | 69 ± 0.16 | – | – | – | – | – | – | – | 113.17 ± 5.15 | – | –
